Tested on: Murine Leukemia 1210/DDP
Test: In vivo antitumor activity against murine leukemia L1210/DDP (Example 3, Table 7)
Parameters: species or system BDF1 mice
Conditions: L1210/DDP i.p., BDF1 mice; drug i.p. days 1, 5, 9
Procedure: (§1) Each of the platinum complexes was evaluated in vivo against L1210/0, L1210/DDP, L1210/DACH and M5076 cells at several dose levels. […] The data at optimal doses are reproduced in Tables 4-7 along with data for the cyclobutanedicarboxylato, aquasulfato, methylmalonato and tartronato analogs (compounds 1-4 in Table 1).
(§2) BDF1 mice inoculated i.p. with 10^5 L1210 Leukemia cells on day 0 and
drug administed i.p. on days 1, 5, and 9. MTD = Maximum Tolerated Dose
(§3) (mg/kg/injection), % T/C = (mean survival time of treated/mean survival
(§4) time of control) × 100. Figures in parenthesis indicated long term
With NC1CCC(N)CC1.O=C1[O][Pt][O]C(=O)C1O [Compound 4, Cis-1,4-diaminocyclohexanetartronatoplatinum(II)] the “MTD (Maximum Tolerated Dose)” value was 50 mg/kg/injection.

Same assay, conditions: L1210/DDP i.p., BDF1 mice; drug i.p. days 1, 5, 9; at optimal dose/MTD
With NC1CCC(N)CC1.O=C1[O][Pt][O]C(=O)C1O [Compound 4, Cis-1,4-diaminocyclohexanetartronatoplatinum(II)] the “% T/C (mean survival time of treated/mean survival time of control) × 100” value was 187%.

Tested on: Murine Leukemia L1210/0
Test: In vivo antitumor activity against murine leukemia L1210/0 (Example 3, Table 5)
Parameters: species or system BDF1 mice
Conditions: L1210/0 i.p., BDF1 mice; drug i.p. days 1, 5, 9
Procedure: as §1
BDF1 mice inoculated i.p. with 10^5 L1210 Leukemiacells on day 0 and
(§5) drug administered i.p. on days 1, 5, and 9. MTD = Maximum Tolerated Dose
as §3
time of control) × 100. Figures in parenthesis indicate long term
In the case of NC1CCC(N)CC1.O.O=S(=O)([O-])[O][Pt+] (stereo not drawn) [Compound 2, Cis-1,4-Diaminocyclohexaneaquasulfatoplatinum(II)], the “MTD (Maximum Tolerated Dose)” value is reported as 1.56 mg/kg/injection.
In the case of CC(C(=O)[O-])C(=O)[O-].N[C@H]1CC[C@@H](N)CC1.O.[Pt+2] [Compound 3, Cis-1,4-Diaminocyclohexanemethylmalonatoplatinum(II). H2 O], the “MTD (Maximum Tolerated Dose)” value is reported as 200 mg/kg/injection.
For NC1CCC(N)CC1.O=C1[O][Pt][O]C(=O)C1O [Compound 4, Cis-1,4-diaminocyclohexanetartronatoplatinum(II)], the “MTD (Maximum Tolerated Dose)” value was 25 mg/kg/injection.

Same assay, conditions: L1210/0 i.p., BDF1 mice; drug i.p. days 1, 5, 9; at optimal dose/MTD
For NC1CCC(N)CC1.O.O=S(=O)([O-])[O][Pt+] (stereo not drawn) [Compound 2, Cis-1,4-Diaminocyclohexaneaquasulfatoplatinum(II)], the “% T/C (mean survival time of treated/mean survival time of control) × 100” value was greater than 571%.
For CC(C(=O)[O-])C(=O)[O-].N[C@H]1CC[C@@H](N)CC1.O.[Pt+2] [Compound 3, Cis-1,4-Diaminocyclohexanemethylmalonatoplatinum(II). H2 O], the “% T/C (mean survival time of treated/mean survival time of control) × 100” value was 382%.
In the case of NC1CCC(N)CC1.O=C1[O][Pt][O]C(=O)C1O [Compound 4, Cis-1,4-diaminocyclohexanetartronatoplatinum(II)], the “% T/C (mean survival time of treated/mean survival time of control) × 100” value is reported as 406%.

Same assay, conditions: L1210/0 i.p., BDF1 mice; drug i.p. days 1, 5, 9; figures in parenthesis
In the case of NC1CCC(N)CC1.O.O=S(=O)([O-])[O][Pt+] (stereo not drawn) [Compound 2, Cis-1,4-Diaminocyclohexaneaquasulfatoplatinum(II)], the “long term survivors/no. tested” value is reported as 3/5.
With CC(C(=O)[O-])C(=O)[O-].N[C@H]1CC[C@@H](N)CC1.O.[Pt+2] [Compound 3, Cis-1,4-Diaminocyclohexanemethylmalonatoplatinum(II). H2 O] the “long term survivors/no. tested” value was 1/5.
With NC1CCC(N)CC1.O=C1[O][Pt][O]C(=O)C1O [Compound 4, Cis-1,4-diaminocyclohexanetartronatoplatinum(II)] the “long term survivors/no. tested” value was 1/5.

Tested on: not listed separately
Test: Renal and hematological toxicity, single i.p. dose (Table 8)
Conditions: blood urea nitrogen; single i.p. dose (mg/kg): 1,4-DACH-Pt^II CBDCA 300, 1,4-DACH-Pt^IV Cl4 8.0, Tetraplatin 8.0, Cis-platin 12.0, Carboplatin 150; saline control 20.9
In the case of N.N.O=C([O-])C1(C(=O)[O-])CCC1.[Pt+2] [Carboplatin], the “BUN d.5” value is reported as 15.8 mg %.

Same assay, conditions: single i.p. dose (mg/kg): 1,4-DACH-Pt^II CBDCA 300, 1,4-DACH-Pt^IV Cl4 8.0, Tetraplatin 8.0, Cis-platin 12.0, Carboplatin 150
With N.N.O=C([O-])C1(C(=O)[O-])CCC1.[Pt+2] [Carboplatin] the “Survivors on d.14” value was 0/5.

Same assay, conditions: single i.p. dose (mg/kg): 1,4-DACH-Pt^II CBDCA 300, 1,4-DACH-Pt^IV Cl4 8.0, Tetraplatin 8.0, Cis-platin 12.0, Carboplatin 150; mean, S.D. less than 20%
In the case of N.N.O=C([O-])C1(C(=O)[O-])CCC1.[Pt+2] [Carboplatin], the “Body Wt. on d.5” value is reported as 79 % on control.

Same assay, conditions: single i.p. dose, leucopenia
For N.N.O=C([O-])C1(C(=O)[O-])CCC1.[Pt+2] [Carboplatin], the “myelotoxicity / myelosuppression (in words)” value was “myelosuppressive”.

Tested on: M5076 Tumor Model
Test: In vivo antitumor activity against M5076 tumor model (Example 3, Table 4)
Parameters: species or system BDF1 mice; TGD (Tumor Growth Delay): unit not given beside the values
Conditions: M5076 s.c., BDF1 mice; i.p. days 7, 14, 21, 28
Procedure: as §1
BDF1 mice inoculated s.c. with 10' M5076 cells on day 0 and drug
administered i.p on days 7, 14, 21, and 28. MTD = Maximum Tolerated Dose
(mg/kg/injection), TGD = Tumor Growth Delay
With NC1CCC(N)CC1.O.O=S(=O)([O-])[O][Pt+] (stereo not drawn) [Compound 2, Cis-1,4-Diaminocyclohexaneaquasulfatoplatinum(II)] the “MTD (Maximum Tolerated Dose)” value was 3.1 mg/kg/injection.
In the case of CC(C(=O)[O-])C(=O)[O-].N[C@H]1CC[C@@H](N)CC1.O.[Pt+2] [Compound 3, Cis-1,4-Diaminocyclohexanemethylmalonatoplatinum(II). H2 O], the “MTD (Maximum Tolerated Dose)” value is reported as 200 mg/kg/injection.
For NC1CCC(N)CC1.O=C1[O][Pt][O]C(=O)C1O [Compound 4, Cis-1,4-diaminocyclohexanetartronatoplatinum(II)], the “MTD (Maximum Tolerated Dose)” value was 50 mg/kg/injection.

Same assay, conditions: M5076 s.c., BDF1 mice; i.p. days 7, 14, 21, 28; at optimal dose/MTD
In the case of NC1CCC(N)CC1.O.O=S(=O)([O-])[O][Pt+] (stereo not drawn) [Compound 2, Cis-1,4-Diaminocyclohexaneaquasulfatoplatinum(II)], the “TGD (Tumor Growth Delay)” value is reported as 12.1.
With CC(C(=O)[O-])C(=O)[O-].N[C@H]1CC[C@@H](N)CC1.O.[Pt+2] [Compound 3, Cis-1,4-Diaminocyclohexanemethylmalonatoplatinum(II). H2 O] the “TGD (Tumor Growth Delay)” value was 23.62.
For NC1CCC(N)CC1.O=C1[O][Pt][O]C(=O)C1O [Compound 4, Cis-1,4-diaminocyclohexanetartronatoplatinum(II)], the “TGD (Tumor Growth Delay)” value was 30.66.

Tested on: Murine Leukemia L1210/DACH
Test: In vivo antitumor activity against murine leukemia L1210/DACH (Example 3, Table 6)
Parameters: species or system BDF1 mice
Conditions: L1210/DACH
Procedure: as §1, §2, §5, §3, §4
For NC1CCC(N)CC1.O=C1[O][Pt][O]C(=O)C1O [Compound 4, Cis-1,4-diaminocyclohexanetartronatoplatinum(II)], the “antitumor activity in vivo against L1210/DACH (in words)” value was “highly active”.

Same assay, conditions: L1210/DACH i.p., BDF1 mice; drug i.p. days 1, 5, 9
With NC1CCC(N)CC1.O.O=S(=O)([O-])[O][Pt+] (stereo not drawn) [Compound 2, Cis-1,4-Diaminocyclohexaneaquasulfatoplatinum(II)] the “MTD (Maximum Tolerated Dose)” value was 1.56 mg/kg/injection.
In the case of CC(C(=O)[O-])C(=O)[O-].N[C@H]1CC[C@@H](N)CC1.O.[Pt+2] [Compound 3, Cis-1,4-Diaminocyclohexanemethylmalonatoplatinum(II). H2 O], the “MTD (Maximum Tolerated Dose)” value is reported as 100 mg/kg/injection.
For NC1CCC(N)CC1.O=C1[O][Pt][O]C(=O)C1O [Compound 4, Cis-1,4-diaminocyclohexanetartronatoplatinum(II)], the “MTD (Maximum Tolerated Dose)” value was 50 mg/kg/injection.

Same assay, conditions: L1210/DACH i.p., BDF1 mice; drug i.p. days 1, 5, 9; at optimal dose/MTD
In the case of NC1CCC(N)CC1.O.O=S(=O)([O-])[O][Pt+] (stereo not drawn) [Compound 2, Cis-1,4-Diaminocyclohexaneaquasulfatoplatinum(II)], the “% T/C (mean survival time of treated/mean survival time of control) × 100” value is reported as 140%.
In the case of CC(C(=O)[O-])C(=O)[O-].N[C@H]1CC[C@@H](N)CC1.O.[Pt+2] [Compound 3, Cis-1,4-Diaminocyclohexanemethylmalonatoplatinum(II). H2 O], the “% T/C (mean survival time of treated/mean survival time of control) × 100” value is reported as 180%.
With NC1CCC(N)CC1.O=C1[O][Pt][O]C(=O)C1O [Compound 4, Cis-1,4-diaminocyclohexanetartronatoplatinum(II)] the “% T/C (mean survival time of treated/mean survival time of control) × 100” value was 343%.

Same assay, conditions: L1210/DACH i.p., BDF1 mice; drug i.p. days 1, 5, 9; figures in parenthesis
In the case of NC1CCC(N)CC1.O.O=S(=O)([O-])[O][Pt+] (stereo not drawn) [Compound 2, Cis-1,4-Diaminocyclohexaneaquasulfatoplatinum(II)], the “long term survivors/no. tested” value is reported as 1/5.
With CC(C(=O)[O-])C(=O)[O-].N[C@H]1CC[C@@H](N)CC1.O.[Pt+2] [Compound 3, Cis-1,4-Diaminocyclohexanemethylmalonatoplatinum(II). H2 O] the “long term survivors/no. tested” value was 1/5.
With NC1CCC(N)CC1.O=C1[O][Pt][O]C(=O)C1O [Compound 4, Cis-1,4-diaminocyclohexanetartronatoplatinum(II)] the “long term survivors/no. tested” value was 4/5.

Same assay, conditions: L1210/DACH; Table 6
NC1CCC(N)CC1.O=C1[O][Pt][O]C(=O)C1O [Compound 4, Cis-1,4-diaminocyclohexanetartronatoplatinum(II)] gave a cure rate of 80%.

Tested on: A2780 cells
Test: Modified MTT cytotoxicity assay, human ovarian A2780 (Example 2, Table 3)
Format: cell-based
Conditions: continuous exposure (5 days in table footnote; 7 days in text)
Procedure: (§6) Cytotoxicity was determined by a modified MTT assay. Briefly, the compounds were dissolved in normal saline and sterilized through 0.22 μm disc filters. […] Aliquots (20 μl ) of this, and serially diluted drug solutions, and of complete media (80 μl) were pipetted in triplicate into 96-well microtiler plates immediately before addition of cells. Cells in exponential phase of growth were trypsinized for 3 min, where necessary to dislodge adherent 2780 cells, collected and counted by Coulter counter (Coulter Electronics, Hialeah, Fla.). After diluting the L1210/0 (2,000/ml) and A2780 (5,000/ml) cells to appropriate concentrations, 100 μl aliquots of these cell suspensions were added to each of the wells. […] After a 3 hour incubation, the medium was removed and replaced by 50 μl of 100% DMSO to dissolve MTT formazan crystals. Plates were then agitated on a plate shaker for 5 min, and absorbances were measured at 570 nm with a multiwell scanning spectrophotometer (Dynatech MR600, Chantilly, Va.).
With NC1CCC(N)CC1.O.O=S(=O)([O-])[O][Pt+] (stereo not drawn) [Compound 2, Cis-1,4-Diaminocyclohexaneaquasulfatoplatinum(II)] the IC50 was 0.05 µM.
For CC(C(=O)[O-])C(=O)[O-].N[C@H]1CC[C@@H](N)CC1.O.[Pt+2] [Compound 3, Cis-1,4-Diaminocyclohexanemethylmalonatoplatinum(II). H2 O], the IC50 was 0.13 µM.
In the case of NC1CCC(N)CC1.O=C1[O][Pt][O]C(=O)C1O [Compound 4, Cis-1,4-diaminocyclohexanetartronatoplatinum(II)], the IC50 is reported as 0.11 µM.
NC1CCC(N)CC1.O=C1[O][Pt][O]C1=O (stereo not drawn) [Compound 5, Cis-1,4-diaminocyclohexaneoxalatoplatinum(II)] gave an IC50 of 0.06 µM.
Molecule N[C@H]1CC[C@@H](N)CC1.O=C([O-])CC(=O)[O-].[Pt+2] [Compound 6, Cis-1,4-diaminocyclohexanemalonatoplatinum(II)] has an IC50 of 0.08 µM.
NC1CCC(N)CC1.[OH][Pt]([OH])([Cl])[Cl] (stereo not drawn) [Compound 8, Cis-1,4-diaminocyclohexanedichlorodihydroxoplatinum(IV)] showed an IC50 of 0.14 µM.
In the case of NC1CCC(N)CC1.O=C1[O][Pt]([Cl])([Cl])[O]C(=O)C12CCC2 [Compound 9, Cis-1,4-diaminocyclohexane-1,1-cyclobutanedicarboxylato-dichloroplatinum(IV)], the IC50 is reported as 0.05 µM.
NC1CCC(N)CC1.O=C1[O][Pt]([Cl])([Cl])[O]C1=O [Compound 10, Cis-1,4-diaminocyclohexaneoxalatodichloroplatinum(IV)] gave an IC50 of 0.051 µM.
In the case of CC(=O)[O][Pt]([Cl])([Cl])[O]C(C)=O.NC1CCC(N)CC1 [Compound 11, Cis-1,4-diamtinocyclohexanedichlorodiacetatoplatinum (IV)], the IC50 is reported as 0.045 µM.

Tested on: L1210/0 cells
Test: Modified MTT cytotoxicity assay, murine leukemia L1210/0 (Example 2, Table 3)
Format: cell-based
Conditions: L1210/0; MTT, continuous exposure 5 days
Procedure: as §6
With NC1CCC(N)CC1.O.O=S(=O)([O-])[O][Pt+] (stereo not drawn) [Compound 2, Cis-1,4-Diaminocyclohexaneaquasulfatoplatinum(II)] the IC50 was 0.08 µM.
Molecule CC(C(=O)[O-])C(=O)[O-].N[C@H]1CC[C@@H](N)CC1.O.[Pt+2] [Compound 3, Cis-1,4-Diaminocyclohexanemethylmalonatoplatinum(II). H2 O] has an IC50 of 0.28 µM.
In the case of NC1CCC(N)CC1.O=C1[O][Pt][O]C(=O)C1O [Compound 4, Cis-1,4-diaminocyclohexanetartronatoplatinum(II)], the IC50 is reported as 0.5 µM.
Molecule NC1CCC(N)CC1.O=C1[O][Pt][O]C1=O (stereo not drawn) [Compound 5, Cis-1,4-diaminocyclohexaneoxalatoplatinum(II)] has an IC50 of 0.24 µM.
For N[C@H]1CC[C@@H](N)CC1.O=C([O-])CC(=O)[O-].[Pt+2] [Compound 6, Cis-1,4-diaminocyclohexanemalonatoplatinum(II)], the IC50 was 0.34 µM.
Molecule NC1CCC(N)CC1.[OH][Pt]([OH])([Cl])[Cl] (stereo not drawn) [Compound 8, Cis-1,4-diaminocyclohexanedichlorodihydroxoplatinum(IV)] has an IC50 of 0.88 µM.
With NC1CCC(N)CC1.O=C1[O][Pt]([Cl])([Cl])[O]C(=O)C12CCC2 [Compound 9, Cis-1,4-diaminocyclohexane-1,1-cyclobutanedicarboxylato-dichloroplatinum(IV)] the IC50 was 0.14 µM.
With NC1CCC(N)CC1.O=C1[O][Pt]([Cl])([Cl])[O]C1=O [Compound 10, Cis-1,4-diaminocyclohexaneoxalatodichloroplatinum(IV)] the IC50 was 0.2 µM.

Source: patent US5434256A, “Diamine platinum complexes as antitumor agents” (priority 1994, dated 1995)
